According to US20230365592A1 (Agios Pharmaceuticals, Inc., priority 2022, published 2023):

target: T1, human PAH with the R408W mutation (Homo sapiens, UniProt P00439, R408W); test: Cell Based Phenylalanine Flux Assay; conditions: A375 cells expressing human R408W PAH; 24 hrs compound incubation; 13C-Tyrosine by LC-MS; average where tested multiple times; read-out: AC50;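 note: after compound treatment, cells received sepiapterin plus isotope-labelled Phenylalanine for 4 hours, then labelled Tyrosine in the medium was quantified, 10-point 2-fold dilution series run in duplicate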
T1 construct: expressed in transfected cells
T1 sequence (P00439 1-452 R408W): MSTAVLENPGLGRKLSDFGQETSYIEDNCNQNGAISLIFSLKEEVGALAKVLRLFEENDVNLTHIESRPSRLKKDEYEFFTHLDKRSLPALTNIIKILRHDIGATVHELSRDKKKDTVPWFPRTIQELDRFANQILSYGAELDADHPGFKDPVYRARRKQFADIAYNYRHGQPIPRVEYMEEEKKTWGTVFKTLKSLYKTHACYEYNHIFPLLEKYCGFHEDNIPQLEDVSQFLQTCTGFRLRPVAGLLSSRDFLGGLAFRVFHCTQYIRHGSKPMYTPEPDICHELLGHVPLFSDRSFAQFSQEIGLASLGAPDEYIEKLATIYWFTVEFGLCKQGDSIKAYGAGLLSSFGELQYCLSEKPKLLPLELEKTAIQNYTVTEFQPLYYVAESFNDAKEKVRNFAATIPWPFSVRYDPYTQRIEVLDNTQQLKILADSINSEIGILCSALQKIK

| AC50 [nM] | SMILES |
| --- | --- |
| > 5000 | Cn1ccc(-c2nnc(C(=O)N3CCc4[nH]cnc4[C@@H]3c3cc4cccc(Cl)n4n3)o2)n1 [Example 977, (R)-(4-(7-chloropyrazolo[1,5-a]pyridin-2-yl)-6,7-dihydro-1H-imidazo(4,5-c]pyridin-5(4H)-yl)(5-(1-methyl-1H-pyrazol-3-yl)-1,3,4-oxadiazol-2-yl)methanone] |
| 1000 to 5000 | O=C(c1nnc(-c2cnccn2)o1)N1CCc2[nH]cnc2[C@@H]1c1cc2cccc(Cl)n2n1 [Example 978, (R)-(4-(7-chloropyrazolo[1,5-a]pyridin-2-yl)-6,7-dihydro-1H-imidazo[4,5-c]pyridin-5(4H)-yl)(5-(pyrazin-2-yl)-1,3,4-oxadiazol-2-yl)methanone] |
| < 500 | O=C(c1nnc(C2CC2)o1)N1CCc2[nH]cnc2[C@H]1c1cc2c(C(F)F)cccn2n1 [Example 980, (S)-(5-cyclopropyl-1,3,4-oxadiazol-2-yl)(4-(4-(difluoromethyl)pyrazolo[1,5-a]pyridin-2-yl)-6,7-dihydro-1H-imidazo[4,5-c]pyridin-5(4H)-yl)methanone] |
| 1000 to 5000 | O=C(c1nnc(C2CC2)o1)N1CCc2[nH]cnc2[C@@H]1c1cc2c(C(F)F)cccn2n1 [Example 981, (R)-(5-cyclopropyl-1,3,4-oxadiazol-2-yl)(4-(4-(difluoromethyl)pyrazolo[1,5-a]pyridin-2-yl)-6,7-dihydro-1H-imidazo[4,5-c]pyridin-5(4H)-yl)methanone] |
| < 500 | O=C(c1nnc(-c2ncccc2F)o1)N1CCc2[nH]cnc2[C@H]1c1cc2cccc(Cl)n2n1 [Example 982, (S)-(4-(7-chloropyrazolo[1,5-a]pyridin-2-yl)-6,7-dihydro-1H-imidazo[4,5-c]pyridin-5(4H)-yl)(5-(3-fluoropyridin-2-yl)-1,3,4-oxadiazol-2-yl)methanone] |
| > 5000 | O=C(c1nnc(-c2ncccc2F)o1)N1CCc2[nH]cnc2[C@@H]1c1cc2cccc(Cl)n2n1 [Example 983, (R)-(4-(7-chloropyrazolo[1,5-a]pyridin-2-yl)-6,7-dihydro-1H-imidazo[4,5-c]pyridin-5(4H)-yl)(5-(3-fluoropyridin-2-yl)-1,3,4-oxadiazol-2-yl)methanone] |
| 1000 to 5000 | O=C(c1nnc(-c2cnn(C(F)F)c2)o1)N1CCc2[nH]cnc2[C@@H]1c1cc2cccc(F)n2n1 [Example 985, (R)-(5-(1-(difluoromethyl)-1H-pyrazol-4-yl)-1,3,4-oxadiazol-2-yl)(4-(7-fluoropyrazolo[1,5-a]pyridin-2-yl)-6,7-dihydro-1H-imidazo[4,5-c]pyridin-5(4H)-yl)methanone] |
| 1000 to 5000 | CC(C)(F)c1nnc(C(=O)N2CCc3[nH]cnc3[C@@H]2c2cc3cccc(F)n3n2)o1 [Example 986, (R)-(5-(2-fluoropropan-2-yl)-1,3,4-oxadiazol-2-yl)(4-(7-fluoropyrazolo[1,5-a]pyridin-2-yl)-6,7-dihydro-1H-imidazo[4,5-c]pyridin-5(4H)-yl)methanone] |
| 500 to 1000 | CC(C)(F)c1nnc(C(=O)N2CCc3[nH]cnc3[C@H]2c2cc3cccc(F)n3n2)o1 [Example 987, (S)-(5-(2-fluoropropan-2-yl)-1,3,4-oxadiazol-2-yl)(4-(7-fluoropyrazolo[1,5-a]pyridin-2-yl)-6,7-dihydro-1H-imidazo[4,5-c]pyridin-5(4H)-yl)methanone] |
| < 500 | Cc1cccn2nc([C@@H]3c4nc[nH]c4CCN3C(=O)c3nnc(-c4cnn(C)c4C)o3)cc12 [Example 988, (S)-(5-(1,5-dimethyl-1H-pyrazol-4-yl)-1,3,4-oxadiazol-2-yl)(4-(4-methylpyrazolo[1,5-a]pyridin-2-yl)-6,7-dihydro-1H-imidazo[4,5-c)pyridin-5(4H)-yl)methanone] |
| 1000 to 5000 | Cc1cccn2nc([C@H]3c4nc[nH]c4CCN3C(=O)c3nnc(-c4cnn(C)c4C)o3)cc12 [Example 989, (R)-(5-(1,5-dimethyl-1H-pyrazol-4-yl)-1,3,4-oxadiazol-2-yl)(4-(4-methylpyrazolo[1,5-a]pyridin-2-yl)-6,7-dihydro-1H-imidazo[4,5-c]pyridin-5(4H)-yl)methanone] |
